“Also recorded” adds a separate entry of the source.
How the values were obtained:
Type in all cases: cell-based, human
[1] = tested on: GM28010 SURF1 mutant fibroblasts; experiment: Seahorse mitochondrial stress test, fibroblast cell line GM28010 (Experiment 1, single compounds); conditions: 48 h
Description: (§1) In order to evaluate selected compounds' impact on mitochondrial function in patient-derived fibroblasts compared to controls, three seahorse assays were conducted, Exp. 1: Fibroblast cell line GM28010—single compounds; Exp. 2. Fibroblast cell line GM28010—combination of compounds+ Single compounds; and Exp. 3: Fibroblast cell line GM28012—single compounds. Seahorse XF24 Extracellular Flux Analyzers continuously measure oxygen concentration and proton flux in the cell supernatant over time (Wu et al., 2007). The oxygen concentration and proton flux measurements are converted in OCR and ECAR values. This enables a direct quantification of mitochondrial respiration and glycolysis. The aim of the seahorse assays is to evaluate the impact of selected compounds on mitochondrial function in patient-derived fibroblasts compared to controls. Compounds used in the seahorse assays include posacanazole, sertaconazole, glabridin, zinglibroside (ginsenoside Z R1), AM281, cysteamine bitrartate, PF-06447475, losmapimod, telepravir, miltefosine, incyclinide, poziotinib, and methylene blue.
Fibroblast cell line GM28010 is a primary human fibroblast cell line obtained from patients with SURF1 Leigh syndrome. It was purchased from the Coriell Cell Repositories (Camden, NJ, repository number GM28010). Cell line GM00038 was used as a healthy control for GM28010 and is a primary human fibroblast purchased from the Coriell Cell Repositories (Camden, NJ, repository number GM00038).
Fibroblasts were grown in glucose according to recommendation.
Cells were plated in XF96 plates in culture medium and were plated at 10,000 cells/well.
The day after plating, cells were treated with the compounds in Table 1. The treatments were completed in glucose medium and galactose medium. The compounds were tested at for 48 hours. The compounds were incubated at (37 C, 5% CO2) until the day of the experiment.
*Fibroblasts were run at passage numbers: GM28010 SURF1 Fibroblasts P5; GM00038F controls P9.
• Assay Medium: 10 mM glucose or galactose DMEM supplemented with 2 mM glutamine and 1 mM pyruvate. • Injection Ports for basal glucose: Port A: 2 μM oligomycin; Port B: 2.5 μM FCCP; Port C: 4 μM FCCP; and Port D: 2 μM rotenone and antimycin A.
Data were normalized to cell number per well after the run. The Hoechst-stained nuclei were counted with the Operetta High-Content Imager.
(§2) • Basal Oxygen Consumption (OCR): This reflects the cellular oxygen usage under basal conditions, encompassing both energy production (ATP turnover) and background oxygen leak from the mitochondria. • Oligomycin Injection: Oligomycin is a compound that inhibits ATP synthase, an enzyme crucial for ATP production within mitochondria. • Oligomycin-resistant Respiration: After oligomycin injection, minimal oxygen consumption persists, representing non-ATP linked oxygen leak from the mitochondria, often termed proton leak. • ATP-linked Respiration: This value is derived by subtracting the oligomycin-resistant respiration from the basal OCR. It signifies the oxygen consumption specifically linked to ATP production through mitochondrial oxidative phosphorylation. • Mitochondrial Bioenergetic Efficiency: This parameter reflects the percentage decrease in oxygen consumption observed after oligomycin injection, indicating the mitochondria's efficiency in utilizing oxygen for ATP generation. • FCCP Injection: FCCP is a chemical that disrupts the link between mitochondrial electron transport and ATP production. • Maximal Respiration: Following FCCP injection, the highest oxygen consumption rate is measured, representing the maximum capacity of the mitochondria to utilize oxygen for respiration. • Spare Respiratory Capacity: This parameter is calculated by subtracting basal respiration from maximal respiration.

SURF1-mutant neurons = experiment: Neurite outgrowth in SURF1-mutant neurons (MAP2 high-content imaging)
Description: The effect of Sertaconazole in human neurons carrying mutations in the gene SURF1 was measured. Hit compounds were filtered and selected to test their effect on neuronal morphogenesis. CRISPR/Cas9 engineered isogenic SURF1 mutant iPSCs on which neural commitment via overexpression of NGN2 was forced were used.
(§3) FIG. 28A depicts quantification of total neurite area in SURF1-mutant neurons. Each value represents the total neurite area in each well of a 96-well plate. Significant values were calculated using the non-parametric Mann-Whitney test and defective neurite development in SURF1-mutant cells was found FIG. 28B depicts quantification of total neurite area in SURF I-mutant neurons treated with either the DMSO vehicle or Sertaconazole at different concentrations. Neurite area was measured 5 days after induction of NGN2 overexpression, using high-content image analysis of MAP2-positive stained neuronal cells. Each value represents the total neurite area in each well of a 96-well plate.
Hit compounds were filtered and selected to test their effect on neuronal morphogenesis CRISPR/Cas9 engineered isogenic SURF1 mutant iPSCs on which neural commitment via overexpression of NGN2 was forced were used.
as §3, with “plate. […]” for “plate. Significant values were calculated using the non-parametric Mann-Whitney test and defective neurite development in SURF1-mutant cells was found”, “in SURF1-mutant” for “in SURF I-mutant”, “plate. […] FIG. 28C depicts representative images of SURF1 mutant neurons treated with either the DMSO vehicle or Sertaconazole.” for “plate.”

[2] = tested on: SURF1-mutant midbrain organoids; experiment: Neuronal staining (TH, MAP2, SMI312) in SURF1-mutant midbrain organoids
Description: (§4) The effect of Sertaconazole in brain organoids carrying mutations in the gene SURF1 was measured.
(§5) FIG. 29A depicts lactate released in the media by SURF1-mutant midbrain organoids compared to isogenic control organoids. There is an aberrant increase of lactate release by SURF1-mutant organoids. FIG. 29B depicts quantification of lactate in the media of SURF1-mutant midbrain organoids that were treated with either DMSO vehicle or 0.1 μM Sertaconazole for 1 week. […] SURF1-mutant midbrain organoids were treated with either the DMSO vehicle or 0.1 μM Sertaconazole for 1 week. […] FIG. 29D depicts representative images of SURF1-mutant midbrain organoids treated with either the DMSO vehicle or Sertaconazole.
FIG. 29A depicts lactate released in the media by SURF1-mutant midbrain organoids compared to isogenic control organoids. The amount of lactate was quantified using a commercial kit. […] FIG. 29B depicts quantification of lactate in the media of SURF1-mutant midbrain organoids that were treated with either DMSO vehicle or 0.1 μM Sertaconazole for 1 week Media was collected and analyzed for lactate content using a commercial kit. […] SURF1-mutant midbrain organoids were treated with either the DMSO vehicle or 0.1 μM Sertaconazole for 1 week. The organoids were then fixed and stained with antibodies against Tyrosine Hydroxylase (TH) (a marker of dopaminergic neurons), MAP2 (a marker for neuronal dendrites), and SMI312 (a marker for neuronal axons). Significant values were calculated using the non-parametric Mann-Whitney test. […] Sertaconazole can represent an effective repositionable drug for children affected by Leigh syndrome.

[3] = tested on: SURF1-mutant midbrain organoids; experiment: Lactate released in the media by SURF1-mutant midbrain organoids; conditions: 0.1 μM, 1 week; vs DMSO; Mann-Whitney ****p<0.0001
Description: as §4, §5
FIG. 29A depicts lactate released in the media by SURF1-mutant midbrain organoids compared to isogenic control organoids. The amount of lactate was quantified using a commercial kit. […] FIG. 29B depicts quantification of lactate in the media of SURF1-mutant midbrain organoids that were treated with either DMSO vehicle or 0.1 μM Sertaconazole for 1 week Media was collected and analyzed for lactate content using a commercial kit. […] SURF1-mutant midbrain organoids were treated with either the DMSO vehicle or 0.1 μM Sertaconazole for 1 week. […] Significant values were calculated using the non-parametric Mann-Whitney test. […]

[4] = tested on: GM28012 SURF1 fibroblasts; experiment: Seahorse mitochondrial stress test, fibroblast cell line GM28012 (Experiment 3, single compounds); conditions: 48 h
Description: as §1, §2
GM28010 primary human fibroblasts obtained from patients with SURF1 Leigh syndrome were purchased from the Coriell Cell Repositories (Camden, N.J.; repository number GM28010).
GM00038 primary human fibroblasts purchased from the Coriell Cell Repositories (Camden, N.J., repository number GM00038) and were used as a healthy control.
Fibroblasts were grown in glucose according to recommendation. Cells were plated in XF96 plates in culture medium and plated at 10,000 cells/well. The day after plating, the cells were treated with the compounds. The treatments completed in glucose medium and galactose medium. The compounds were tested at for 48 hours. The compounds were incubated at (37 C, 5% CO2) until the day of the experiment. The fibroblasts were run at passage numbers: GM28012 SURF1 Fibroblasts P5.
The assay medium was 10 mM glucose or galactose DMEM supplemented with 2 mM glutamine and 1 mM pyruvate. Injection Ports for basal glucose: Port A: 2 μM oligomycin; Port B: 2.5 μM FCCP; Port C: 4 μM FCCP; and Port D: 2 μM rotenone and antimycin A.
The data were normalized to cell number per well after the run. The Hoechst-stained nuclei were counted with a Operetta High-Content Imager.

[5] = glucose and galactose conditions

Clc1ccc(C(Cn2ccnc2)OCc2csc3c(Cl)cccc23)c(Cl)c1 (stereo not shown) [Sertaconazole, sertaconazole]
ATP production [1]: no effect on ATP production | maximal OCR ([1]; all concentrations): ↓ maximal OCR@ all conc; | respiration [1, 5]: did not result in major changes | total neurite area (defective neurite development in SURF1-mutant cells) (SURF1-mutant neurons; 5 days after NGN2 induction, vs DMSO, Mann-Whitney **p<0.01): correction of defective neurite development | neuromorphogenesis defects in SURF1-mutant neurons (SURF1-mutant neurons; FIG. 28): ameliorates neuromorphogenesis defects | rescue of neurite outgrowth capacity (SURF1-mutant neurons; NGN2-induced SURF1 mutant neurons, FIG. 28): dose-dependent rescue of neurite outgrowth capacity | amount of TH-positive dopaminergic neurons ([2]; 0.1 μM, 1 week, vs DMSO): increased the amount of TH-positive dopaminergic neurons; also recorded: increase in TH neurons was evident but did not reach statistical significance | overall neuronal branching organization ([2]; 0.1 μM, 1 week, vs DMSO): rescued the overall neuronal branching organization | amount of neuronal processes ([2]; 0.1 μM, 1 week, vs DMSO, Mann-Whitney *p<0.05): corrected the increased the amount of neuronal processes | neuromorphogenesis and lactate defects in SURF1-mutant midbrain organoids ([2]; FIG. 29): ameliorates neuromorphogenesis and lactate defects | amount of lactate released to the media [3]: reduced the aberrant release of lactate; also recorded: decreases the aberrant amount of lactate | respiration [4, 5]: decreased respiration | ATP production through glycolysis ([4]; higher concentrations): increased ATP production through glycolysis; also recorded: lower concentration; ↑ATP

From patent US20260315436A1, “METHOD OF TREATING DISORDERS WITH SURF1 MALFUNCTION” (Cure Mito Foundation, priority 2023, published 2026)
